One molecule from US7816555B2, “Peroxycarboxylic acid compositions with reduced odor” (Ecolab Inc., priority 2003, dated 2010) can be followed below.

This series can be described thus: pH of the mixtures. To be noted: mixture at the stated moles of POAA, AA and AO-8. It counts as physicochemical. The method, then: Octyldimethylamine oxide was added to a peracid composition containing 15% peroxyacetic acid, 10% hydrogen peroxide, and about 40-45% acetic acid. The octyldimethylamine oxide was added at different levels, corresponding to differing molar ratios of peroxyacetic acid (POAA) to acetic acid (AA) to octyldimethylamine oxide (AO-8). The mixture was then compared for remaining odor. […] It was surprising that this reduction occurred even at pH too low for ion pair formation between the AO-8 and POAA, i.e. substantially below the 8.2 pKa of POAA.

In the case of `CCCCCCCC[N+](C)(C)[O-]` [AO-8, octyldimethylamine oxide], the “mixture results: pH” value came out at 7.7.
